The subject of experiment [1] is H. pylori NTCC 11637. Particulars: viability of the inoculum reduced by ≥99.9%, CFU on BA after 5 days, 2 replicates in 3 independent experiments. Here is the method:
(§1) H. pylori human strains J99 and 26695 (provided by Department of Medical Biochemistry and Biophysics, Umeå University, Sweden), NCTC 11637 (ATCC 43504) and mouse-adapted SS1 strain (provided by Unité de Pathogenèse de Helicobacter, Institut Pasteur, France) were grown following the standard procedure. Briefly, H. pylori was cultured in Blood Agar (BA; Oxoid) supplemented with 10% of defibrinated horse blood (Probiologica) and with an antibiotic cocktail (polymyxin B, vancomycin, amphotericin B, trimethoprim; all from Sigma-Aldrich) under microaerophilic conditions (<5% O2; GenBox System, BioMérieux) at 37 °C for 48 h. Afterwards, some colonies were streaked onto fresh BA medium and kept in culture in the same conditions for another 48 h. Subsequently, bacterial inoculum was adjusted to 0.03 optical density at 600 nm (OD600), which corresponds to approximately 1 × 10^7 colony forming units (CFUs)/mL[48]. Initial inoculum was confirmed by inoculation of 10 μL drops of the bacterial suspension onto BA and CFUs were counted after 5 days of incubation in the same above-mentioned settings.
(§2) The MBC was defined as the lowest AMP concentration that was able to diminish the viability of the initial bacterial inoculum by ≥99.9%. MBC determination followed the CLSI guidelines[49] but briefly, a 50 µL sample was taken from the first three lowest concentrations where no bacterial growth was observed (concentration corresponding to the MIC), serially diluted in PBS until 10^−6 and then spotted on BA. After 5 days of incubation at 37 °C in microaerophilic environment, the CFUs/mL were calculated. Two replicates of each AMP concentration were performed in three independent experiments.

Experiment [2] concerns H. pylori J99. The following applies: viability of the inoculum reduced by ≥99.9%, CFU on BA after 5 days, 2 replicates in 3 independent experiments. Here is the method:
as §1, §2

The test system of experiment [3] is H. pylori 26695. The following applies: viability of the inoculum reduced by ≥99.9%, CFU on BA after 5 days, 2 replicates in 3 independent experiments. As for the experimental part:
as §1, §2

Experiment [4] has as its system H. pylori SS1. It is filed as cell-based, Helicobacter pylori. Particulars: H. pylori SS1 (mouse-adapted); viability of the inoculum reduced by ≥99.9%; CFU on BA after 5 days; 2 replicates in 3 independent experiments. As for the experimental part: as §1, §2
In experiment [5] the test system is H. pylori SS1. The following applies: H. pylori SS1 (mouse-adapted); MHB + 10% FBS, 37 °C, microaerophilic, 72 h; 2 replicates in 3 independent experiments. Here is the method:
as §1
(§3) The MICs of the AMPs (Table 1) against H. pylori strains were determined using the microbroth dilution method in Mueller Hinton Broth (MHB) supplemented with 10% of inactivated Fetal Bovine Serum (FBS; Gibco) and in accordance with the Clinical Laboratory Standards Institute (CLSI) guidelines. Briefly, AMPs were diluted in 0.01% of acetic acid with 0.2% Bovine Serum Albumin (BSA; Sigma) to allow AMP protonation and avoid its aggregation, respectively, following an already established protocol. The selected AMPs concentrations ranged from 2 µg/mL up to 512 µg/mL. Incubation was performed at 37 °C in microaerophilic conditions for 72 h. The MIC was defined as the first AMP concentration that prevented visible (naked eye) bacterial growth. Two replicates of each AMP concentration were performed in three independent experiments.

In experiment [6] the test system is H. pylori NTCC 11637. The following applies: MHB + 10% FBS, 37 °C, microaerophilic, 72 h, 2 replicates in 3 independent experiments. As for the experimental part: as §1, §3
Experiment [7] deals with H. pylori J99. The following applies: MHB + 10% FBS, 37 °C, microaerophilic, 72 h, 2 replicates in 3 independent experiments. Here is the method: as §1, §3
Experiment [8] has as its system H. pylori 26695. Particulars: MHB + 10% FBS, 37 °C, microaerophilic, 72 h, 2 replicates in 3 independent experiments. As for the experimental part: as §1, §3
The subject of a further experiment is S. epidermidis. The experiment is described as follows: MIC of AMP in solution, adhesion control strain.

Where no end group is shown, it is not given here.

Regarding GIGKFLKKAKKFAKAFVKILKK [MSI-78A], the MBC (usually the smallest concentration meeting the test's criterion for killing) came to 256 µg/mL with H. pylori NTCC 11637 [1], 128 µg/mL against H. pylori J99 [2], 32 µg/mL with H. pylori 26695 [3] and 256 µg/mL in the experiment on H. pylori SS1 [4]. Also, the MIC (as a rule, the lowest concentration that inhibits growth of the organism) with H. pylori SS1 [5] was found to be 128 µg/mL; in the experiment on H. pylori NTCC 11637 [6], 128 µg/mL; in the experiment on H. pylori J99 [7], 64 µg/mL; in the experiment on H. pylori 26695 [8], 16 µg/mL; in the experiment on S. epidermidis it was 2 µg/mL.

As to GIGKFLKKAKKFGKAFVKILKK [MSI-78], the MBC in the experiment with H. pylori NTCC 11637 [1] is more than 512 µg/mL; against H. pylori J99 [2] it was more than 512 µg/mL; against H. pylori 26695 [3], 128 µg/mL; against H. pylori SS1 [4], more than 512 µg/mL. Besides, the MIC in the experiment on H. pylori SS1 [5] worked out at 128 µg/mL; in the experiment with H. pylori NTCC 11637 [6], 256 µg/mL; in the experiment with H. pylori J99 [7], 256 µg/mL; with H. pylori 26695 [8], 64 µg/mL.

Consider GLLRASSVWGRKYYVDLAGCAKA [Odorranain-HP], for which the MBC in the experiment on H. pylori NTCC 11637 [1], against H. pylori J99 [2], in the experiment with H. pylori 26695 [3] and in the experiment with H. pylori SS1 [4] was more than 512 µg/mL each time. The MIC with H. pylori SS1 [5], in the experiment with H. pylori NTCC 11637 [6], in the experiment with H. pylori J99 [7] and in the experiment on H. pylori 26695 [8] was more than 512 µg/mL throughout.

The record behind these values is paper PMC6890677, “Surface Grafted MSI-78A Antimicrobial Peptide has High Potential for Gastric Infection Management” (Scientific Reports, 2019).
